Data as given in patent US7459450B2, “Neuropeptide receptor modulators” (Schering Corporation, priority 2004, dated 2008).
pKi: −log10 of the molar value.

target: T1, Human NPY Y1 receptors (Homo sapiens, UniProt P25929); experiment: NPY Receptor Binding Assay; details: not given
T1 construct: expressed in transfected cells; host or cells: CHO cells (membrane protein)
T1 sequence (P25929 1-384): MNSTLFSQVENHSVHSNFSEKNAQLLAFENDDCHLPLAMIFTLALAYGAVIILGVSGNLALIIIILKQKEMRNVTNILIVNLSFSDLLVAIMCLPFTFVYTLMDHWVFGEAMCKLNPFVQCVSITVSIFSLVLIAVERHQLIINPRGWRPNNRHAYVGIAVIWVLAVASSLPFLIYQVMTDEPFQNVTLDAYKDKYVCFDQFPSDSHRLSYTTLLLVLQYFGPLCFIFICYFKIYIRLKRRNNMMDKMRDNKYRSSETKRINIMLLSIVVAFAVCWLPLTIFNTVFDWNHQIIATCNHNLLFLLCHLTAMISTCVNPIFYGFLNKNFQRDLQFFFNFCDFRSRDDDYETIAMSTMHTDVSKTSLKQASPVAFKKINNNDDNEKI
Description: NPY Receptor Binding Assay
Human NPY Y1 receptors were expressed in CHO cells. Binding assays were performed in 50 mM HEPES, pH 7.2, 2.5 mM CaCl2, 1 mM MgCl2 and 0.1% BSA containing 5-10 μg of membrane protein and 0.1 nM […] in a total volume of 200 μl. Non-specific binding was determined in the presence of 1 μM NPY. The reaction mixtures were incubated for 90 minutes at room temperature then filtered through Millipore MAFC glass fiber filter plates which had been pre-soaked in 0.5% polyethleneimine. The filters were washed with phosphate-buffered saline, and radioactivity was measured in a Packard TopCount scintillation counter.

Question: With CC(C)C[C@@H]1N/C(=N/c2ccc(CCNc3nc4ccc([N+](=O)[O-])cc4s3)cc2)SC1=O [Example 340] as the compound, how does the pKi read?
Answer: < 5.00

Question: O=C1S/C(=N\c2ccc(CCNc3nc4ccc([N+](=O)[O-])cc4s3)cc2)N2CCC[C@@H]12 [Example 341] was tested. Which pKi did it give?
Answer: < 5.00

Question: O=C(O)C[C@@H]1N/C(=N/c2ccc(CCNc3nc4ccc([N+](=O)[O-])cc4s3)cc2)SC1=O [Example 342] was tested. Which pKi did it give?
Answer: < 5.00

Question: With C[C@@H]1N/C(=N/c2ccc(CCNc3nc4ccc([N+](=O)[O-])cc4s3)cc2)SC1=O [Example 343] as the compound, how does the pKi read?
Answer: < 5.00

Question: COc1ccc2nc(NCCc3ccc(/N=C4/N[C@@H](Cc5ccccc5)C(=O)S4)cc3)sc2c1 [Example 344] was tested. Which pKi did it give?
Answer: < 5.00

Question: How did the pKi turn out when COc1ccc2nc(NCCc3ccc(/N=C4/N[C@@H](CC(C)C)C(=O)S4)cc3)sc2c1 [Example 345] was run?
Answer: < 5.00

Question: COc1ccc2nc(NCCc3ccc(/N=C4/N[C@@H](C(C)C)C(=O)S4)cc3)sc2c1 [Example 346] was tested. Which pKi did it give?
Answer: < 5.00

Question: COc1ccc2nc(NCCc3ccc(/N=C4\SC(=O)[C@@H]5CCCN45)cc3)sc2c1 [Example 347] was tested. Which pKi did it give?
Answer: < 5.00

Question: COc1ccc2nc(NCCc3ccc(/N=C4/N[C@@H](CC(=O)O)C(=O)S4)cc3)sc2c1 [Example 348] was tested. Which pKi did it give?
Answer: < 5.00

Question: With COc1ccc2nc(NCCc3ccc(/N=C4/N[C@@H](C)C(=O)S4)cc3)sc2c1 [Example 349] as the compound, how does the pKi read?
Answer: < 5.00

Question: With Cc1ccc2nc(NCCc3ccc(/N=C4/N[C@@H](Cc5ccccc5)C(=O)S4)cc3)sc2c1 [Example 350] as the compound, how does the pKi read?
Answer: < 5.00

Question: How did the pKi turn out when Cc1ccc2nc(NCCc3ccc(/N=C4/N[C@@H](CC(C)C)C(=O)S4)cc3)sc2c1 [Example 351] was run?
Answer: < 5.00

Question: With CS(=O)(=O)c1ccc2nc(NCCc3ccc(/N=C4\SC(=O)[C@@H]5CCCN45)cc3)sc2c1 [Example 352] as the compound, how does the pKi read?
Answer: < 5.00

Question: With CS(=O)(=O)c1ccc2nc(NCCc3ccc(/N=C4/N[C@@H](CC(=O)O)C(=O)S4)cc3)sc2c1 [Example 353] as the compound, how does the pKi read?
Answer: < 5.00

Question: With C[C@@H]1N/C(=N/c2ccc(CCNc3nc4ccc(S(C)(=O)=O)cc4s3)cc2)SC1=O [Example 354] as the compound, how does the pKi read?
Answer: < 5.00

Question: How did the pKi turn out when O=C1S/C(=N\c2ccc(CCNc3nc4ccc([N+](=O)[O-])cc4s3)cc2)N[C@H]1Cc1ccccc1 [Example 355] was run?
Answer: < 5.00

Question: With CC(C)[C@@H]1N/C(=N/c2ccc(CCNc3nc4ccc([N+](=O)[O-])cc4s3)cc2)SC1=O [Example 356] as the compound, how does the pKi read?
Answer: < 5.00

Question: CSCC[C@@H]1N/C(=N/c2ccc(CCNc3nc4ccc(C)cc4s3)cc2)SC1=O [Example 357] was tested. Which pKi did it give?
Answer: 5.00 to 6.00

Question: How did the pKi turn out when O=C(O)C[C@@H]1N/C(=N/c2ccc(CCNc3nc4ccc(Cl)cc4s3)cc2)SC1=O [Example 358] was run?
Answer: < 5.00

Question: How did the pKi turn out when CC(C)[C@@H]1N/C(=N/c2ccc(CCNc3nc4ccc(S(C)(=O)=O)cc4s3)cc2)SC1=O [Example 359] was run?
Answer: < 5.00

Question: How did the pKi turn out when O=C1S/C(=N\c2ccc(CCNc3nc4cc(Cl)c(Cl)cc4s3)cc2)N[C@H]1Cc1ccccc1 [Example 360] was run?
Answer: < 5.00

Question: How did the pKi turn out when CSCC[C@@H]1N/C(=N/c2ccc(CCNc3nc4cc(Cl)c(Cl)cc4s3)cc2)SC1=O [Example 361] was run?
Answer: < 5.00

same assay, conditions: Procedure E compounds, rated A/B/C

Question: How did the pKi turn out when C=C(C)CN1/C(=N/c2ccc(CCNc3nc4ccc(C)cc4s3)cc2)SC2Cc3ccccc3[C@@H]21 (some centres unmarked) [Example 225] was run?
Answer: < 5.00

Question: With Cc1ccc2nc(NCCc3ccc(/N=C4/NC5(CCCC5)CS4)cc3)sc2c1 [Example 226] as the compound, how does the pKi read?
Answer: 5.00 to 6.00

Question: Cc1ccc2nc(NCCc3ccc(/N=C4/NC(C)(C)CS4)cc3)sc2c1 [Example 227] was tested. Which pKi did it give?
Answer: > 6.00

Question: COc1cccc2sc(NCCc3ccc(/N=C4\SC5Cc6ccccc6[C@@H]5N4C)cc3)nc12 (some centres unmarked) [Example 228] was tested. Which pKi did it give?
Answer: < 5.00

Question: COc1cccc2sc(NCCc3ccc(/N=C4\SC5Cc6ccccc6[C@@H]5N4C4CC4)cc3)nc12 (some centres unmarked) [Example 229] was tested. Which pKi did it give?
Answer: < 5.00

Question: COc1cccc2sc(NCCc3ccc(/N=C4\SCCN4C)cc3)nc12 [Example 230] was tested. Which pKi did it give?
Answer: < 5.00

Question: Clc1ccc2nc(NCCc3ccc(/N=C4/N[C@@H](Cc5c[nH]cn5)CS4)cc3)sc2c1 [Example 238] was tested. Which pKi did it give?
Answer: 5.00 to 6.00

Question: With Clc1ccc2nc(NCCc3ccc(/N=C4/NC5(CCCC5)CS4)cc3)sc2c1 [Example 239] as the compound, how does the pKi read?
Answer: 5.00 to 6.00

Question: How did the pKi turn out when CC1(C)CS/C(=N\c2ccc(CCNc3nc4ccc(Cl)cc4s3)cc2)N1 [Example 240] was run?
Answer: 5.00 to 6.00

Question: With CC(C)C[C@@H]1CS/C(=N\c2ccc(CCNc3nc4ccc(S(C)(=O)=O)cc4s3)cc2)N1 [Example 245] as the compound, how does the pKi read?
Answer: 5.00 to 6.00

Question: CCCC1CS/C(=N\c2ccc(CCNc3nc4ccc(S(C)(=O)=O)cc4s3)cc2)N1 (centres unmarked) [Example 249] was tested. Which pKi did it give?
Answer: 5.00 to 6.00

Question: How did the pKi turn out when CCC1CS/C(=N\c2ccc(CCNc3nc4ccccc4s3)cc2)N1 (centres unmarked) [Example 263] was run?
Answer: > 6.00

Question: CCCC1CS/C(=N\c2ccc(CCNc3nc4ccccc4s3)cc2)N1 (centres unmarked) [Example 264] was tested. Which pKi did it give?
Answer: > 6.00

Question: With C[C@@H]1CS/C(=N\c2ccc(CCNc3nc4ccccc4s3)cc2)N1 [Example 268] as the compound, how does the pKi read?
Answer: > 6.00

Question: With CC[C@@H]1CS/C(=N\c2ccc(CCNc3nc4ccccc4s3)cc2)N1 [Example 269] as the compound, how does the pKi read?
Answer: > 6.00

Question: With c1ccc2sc(NCCc3ccc(/N=C4/N[C@@H](Cc5c[nH]cn5)CS4)cc3)nc2c1 [Example 270] as the compound, how does the pKi read?
Answer: > 6.00

Question: With c1ccc2sc(NCCc3ccc(/N=C4/NC5(CCCC5)CS4)cc3)nc2c1 [Example 271] as the compound, how does the pKi read?
Answer: > 6.00

Question: How did the pKi turn out when CC1(C)CS/C(=N\c2ccc(CCNc3nc4ccccc4s3)cc2)N1 [Example 272] was run?
Answer: > 6.00

Question: With CC(C)C[C@@H]1CS/C(=N\c2ccc(CCNc3nc4ccc(F)cc4s3)cc2)N1 [Example 297] as the compound, how does the pKi read?
Answer: > 6.00

Question: With CC1(C)CS/C(=N/c2cccc(CCNc3nc4ccccc4s3)c2)N1 [Example 321] as the compound, how does the pKi read?
Answer: < 5.00

Question: How did the pKi turn out when COc1ccc2nc(NCCc3ccc(/N=C4/NCC(C)S4)cc3)sc2c1 (centres unmarked) [Example 322] was run?
Answer: < 5.00

Question: Cc1ccc2nc(NCCc3ccc(/N=C4/N[C@@H](C)C(c5ccccc5)S4)cc3)sc2c1 (some centres unmarked) [Example 323] was tested. Which pKi did it give?
Answer: < 5.00

Question: With Cc1ccc2nc(NCCc3ccc(/N=C4/NCC(C)S4)cc3)sc2c1 (centres unmarked) [Example 324] as the compound, how does the pKi read?
Answer: < 5.00

Question: How did the pKi turn out when COc1cccc2sc(NCCc3ccc(/N=C4/N[C@H]5c6ccccc6CC5S4)cc3)nc12 (some centres unmarked) [Example 325] was run?
Answer: < 5.00

Question: How did the pKi turn out when COc1cccc2sc(NCCc3ccc(/N=C4/NCC(C)S4)cc3)nc12 (centres unmarked) [Example 326] was run?
Answer: < 5.00

Question: Cc1cccc2sc(NCCc3ccc(/N=C4/NCC(C)S4)cc3)nc12 (centres unmarked) [Example 327] was tested. Which pKi did it give?
Answer: < 5.00

Question: Fc1ccc2nc(NCCc3ccc(/N=C4/N[C@H]5c6ccccc6CC5S4)cc3)sc2c1 (some centres unmarked) [Example 328] was tested. Which pKi did it give?
Answer: > 6.00

Question: Fc1ccc2nc(NCCc3ccc(/N=C4/NCC(c5ccccc5)S4)cc3)sc2c1 (centres unmarked) [Example 329] was tested. Which pKi did it give?
Answer: < 5.00

Question: With CC1CN/C(=N/c2ccc(CCNc3nc4ccc(F)cc4s3)cc2)S1 (centres unmarked) [Example 330] as the compound, how does the pKi read?
Answer: < 5.00

Question: CC1CN/C(=N/c2ccc(CCNc3nc4ccc(Cl)cc4s3)cc2)S1 (centres unmarked) [Example 331] was tested. Which pKi did it give?
Answer: < 5.00

Question: With CS(=O)(=O)c1ccc2nc(NCCc3ccc(/N=C4/N[C@H]5c6ccccc6CC5S4)cc3)sc2c1 (some centres unmarked) [Example 332] as the compound, how does the pKi read?
Answer: < 5.00

Question: With COc1ccc(C2CCSC(Nc3ccc(CCNc4nc5ccccc5s4)cc3)=N2)cc1 (centres unmarked) [Example 333] as the compound, how does the pKi read?
Answer: > 6.00

Question: CC(C)C1CCSC(Nc2ccc(CCNc3nc4ccccc4s3)cc2)=N1 (centres unmarked) [Example 334] was tested. Which pKi did it give?
Answer: > 6.00

Question: With Brc1ccc(C2CCSC(Nc3ccc(CCNc4nc5ccccc5s4)cc3)=N2)cc1 (centres unmarked) [Example 335] as the compound, how does the pKi read?
Answer: > 6.00

Question: c1ccc2c(CC3CSC(Nc4ccc(CCNc5nc6ccccc6s5)cc4)=N3)cccc2c1 (centres unmarked) [Example 336] was tested. Which pKi did it give?
Answer: < 5.00

Question: Clc1ccc(C2CCSC(Nc3ccc(CCNc4nc5ccccc5s4)cc3)=N2)cc1 (centres unmarked) [Example 337] was tested. Which pKi did it give?
Answer: > 6.00

Question: With CC(C)CC1CCSC(Nc2ccc(CCNc3nc4ccccc4s3)cc2)=N1 (centres unmarked) [Example 338] as the compound, how does the pKi read?
Answer: > 6.00
